Data taken from PubChem BioAssay (NCI).
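These data come from cells grown in 96-well plates and exposed to compound for 48 hours at five concentrations. GI50 is the concentration that inhibits growth by half. TGI: total growth inhibition.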

Columns and labels:
Assay in all cases: growth of human tumour cells (NCI), 48 h
786-0 renal = system: 786-0 renal
A498 renal = system: A498 renal
BT-549 breast = system: BT-549 breast
CAKI-1 renal = system: CAKI-1 renal
DU-145 prostate = system: DU-145 prostate
HCC-2998 colon = system: HCC-2998 colon
HCT-116 colon = system: HCT-116 colon
HCT-15 colon = system: HCT-15 colon
HOP-62 NSCLC = system: HOP-62 NSCLC
HOP-92 NSCLC = system: HOP-92 NSCLC
HS 578T breast = system: HS 578T breast
K-562 leukemia = system: K-562 leukemia
MDA-MB-231 breast = system: MDA-MB-231 breast
MDA-MB-435 = system: MDA-MB-435
NCI-H226 lung = system: NCI-H226 lung
NCI/ADR-RES ovarian = system: NCI/ADR-RES ovarian
OVCAR-4 ovarian = system: OVCAR-4 ovarian
OVCAR-5 ovarian = system: OVCAR-5 ovarian
OVCAR-8 ovarian = system: OVCAR-8 ovarian
SK-OV-3 ovarian = system: SK-OV-3 ovarian
SNB-19 CNS = system: SNB-19 CNS
SNB-75 CNS = system: SNB-75 CNS
T-47D breast = system: T-47D breast
TK-10 renal = system: TK-10 renal
U251 CNS = system: U251 CNS
A549 NSCLC = system: A549 NSCLC
ACHN renal = system: ACHN renal
CCRF-CEM leukemia = system: CCRF-CEM leukemia
COLO 205 colon = system: COLO 205 colon
EKVX NSCLC = system: EKVX NSCLC
HT29 colon = system: HT29 colon
IGROV1 ovarian = system: IGROV1 ovarian
KM12 colon = system: KM12 colon
LOX IMVI melanoma = system: LOX IMVI melanoma
M14 melanoma = system: M14 melanoma
MALME-3M melanoma = system: MALME-3M melanoma
MCF7 breast = system: MCF7 breast
MOLT-4 leukemia = system: MOLT-4 leukemia
NCI-H23 lung = system: NCI-H23 lung
NCI-H460 lung = system: NCI-H460 lung
NCI-H522 lung = system: NCI-H522 lung
OVCAR-3 ovarian = system: OVCAR-3 ovarian
PC-3 prostate = system: PC-3 prostate
RPMI-8226 leukemia = system: RPMI-8226 leukemia
RXF 393 renal = system: RXF 393 renal
SF-268 CNS = system: SF-268 CNS
SF-295 CNS = system: SF-295 CNS
SF-539 CNS = system: SF-539 CNS
SK-MEL-2 melanoma = system: SK-MEL-2 melanoma
SK-MEL-28 melanoma = system: SK-MEL-28 melanoma
SK-MEL-5 melanoma = system: SK-MEL-5 melanoma
SN12C renal = system: SN12C renal
SW-620 colon = system: SW-620 colon
UACC-257 melanoma = system: UACC-257 melanoma
UACC-62 melanoma = system: UACC-62 melanoma
UO-31 renal = system: UO-31 renal

For O=C(Nc1cccc(Cl)c1)Nc1cc2ncncc2cc1OCc1cccc(F)c1, the GI50 (786-0 renal) was 3 µM, the TGI (786-0 renal) was > 100 µM and the GI50 (A498 renal) was 1.75 µM. The TGI (A498 renal) was 5.96 µM, the GI50 (BT-549 breast) was 2.34 µM and the TGI (BT-549 breast) was 7.41 µM. The GI50 (CAKI-1 renal) was 3.03 µM, the TGI (CAKI-1 renal) was > 100 µM and the GI50 (DU-145 prostate) was 3.38 µM. The TGI (DU-145 prostate) was > 100 µM, the GI50 (HCC-2998 colon) was 3.9 µM and the TGI (HCC-2998 colon) was > 100 µM. The GI50 (HCT-116 colon) was 2.61 µM, the TGI (HCT-116 colon) was > 100 µM and the GI50 (HCT-15 colon) was 2.72 µM. For the same compound, the TGI (HCT-15 colon) was > 100 µM, the GI50 (HOP-62 NSCLC) was 2.1 µM and the TGI (HOP-62 NSCLC) was 5.6 µM. For the same compound, the GI50 (HOP-92 NSCLC) was 1.88 µM, the TGI (HOP-92 NSCLC) was 6.88 µM and the GI50 (HS 578T breast) was 2.62 µM. For the same compound, the TGI (HS 578T breast) was 7.02 µM, the GI50 (K-562 leukemia) was 2.52 µM and the TGI (K-562 leukemia) was > 100 µM. The GI50 (MDA-MB-231 breast) was 2.54 µM, the TGI (MDA-MB-231 breast) was 7.8 µM and the GI50 (MDA-MB-435) was 1.48 µM. For the same compound, the TGI (MDA-MB-435) was 4.34 µM, the GI50 (NCI-H226 lung) was 2.91 µM and the TGI (NCI-H226 lung) was 9.19 µM. It also gave a GI50 (NCI/ADR-RES ovarian) of 2.97 µM, a TGI (NCI/ADR-RES ovarian) of 7.71 µM and a GI50 (OVCAR-4 ovarian) of 2.56 µM. The TGI (OVCAR-4 ovarian) was 7.35 µM, the GI50 (OVCAR-5 ovarian) was 2.72 µM and the TGI (OVCAR-5 ovarian) was > 100 µM. It also gave a GI50 (OVCAR-8 ovarian) of 2.76 µM, a TGI (OVCAR-8 ovarian) of 7.98 µM and a GI50 (SK-OV-3 ovarian) of 2.45 µM. It also gave a TGI (SK-OV-3 ovarian) of 6.13 µM, a GI50 (SNB-19 CNS) of 2.91 µM and a TGI (SNB-19 CNS) of 74.2 µM. It also gave a GI50 (SNB-75 CNS) of 1.81 µM, a TGI (SNB-75 CNS) of 3.98 µM and a GI50 (T-47D breast) of 1.75 µM. For the same compound, the TGI (T-47D breast) was 4.37 µM, the GI50 (TK-10 renal) was 2.63 µM and the TGI (TK-10 renal) was 7.98 µM. For the same compound, the GI50 (U251 CNS) was 3.28 µM and the TGI (U251 CNS) was > 100 µM.
In the case of CC1SC(c2ccc(Cl)c(Cl)c2)N(NC(=O)C(O)c2ccccc2)C1=O (stereo not given), the GI50 (786-0 renal) is reported as 79.6 µM, the TGI (786-0 renal) is reported as > 100 µM and the GI50 (A498 renal) is reported as 77.1 µM. The TGI (A498 renal) was > 100 µM, the GI50 (A549 NSCLC) was 29.6 µM and the TGI (A549 NSCLC) was 85.4 µM. The GI50 (ACHN renal) was 33.3 µM, the TGI (ACHN renal) was > 100 µM and the GI50 (BT-549 breast) was 45 µM. For the same compound, the TGI (BT-549 breast) was > 100 µM, the GI50 (CAKI-1 renal) was 30.7 µM and the TGI (CAKI-1 renal) was > 100 µM. For the same compound, the GI50 (CCRF-CEM leukemia) was 55.1 µM, the TGI (CCRF-CEM leukemia) was > 100 µM and the GI50 (COLO 205 colon) was 44.7 µM. For the same compound, the TGI (COLO 205 colon) was > 100 µM, the GI50 (DU-145 prostate) was 59.2 µM and the TGI (DU-145 prostate) was > 100 µM. The GI50 (EKVX NSCLC) was 43.7 µM, the TGI (EKVX NSCLC) was > 100 µM and the GI50 (HCC-2998 colon) was 36.9 µM. For the same compound, the TGI (HCC-2998 colon) was > 100 µM, the GI50 (HCT-116 colon) was 43.2 µM and the TGI (HCT-116 colon) was > 100 µM. The GI50 (HCT-15 colon) was 45.5 µM, the TGI (HCT-15 colon) was > 100 µM and the GI50 (HOP-62 NSCLC) was 85.1 µM. The TGI (HOP-62 NSCLC) was > 100 µM, the GI50 (HOP-92 NSCLC) was 40.8 µM and the TGI (HOP-92 NSCLC) was > 100 µM. The GI50 (HS 578T breast) was 51.1 µM, the TGI (HS 578T breast) was > 100 µM and the GI50 (HT29 colon) was 32.3 µM. The TGI (HT29 colon) was > 100 µM, the GI50 (IGROV1 ovarian) was 28.5 µM and the TGI (IGROV1 ovarian) was 74.6 µM. The GI50 (K-562 leukemia) was 57.1 µM, the TGI (K-562 leukemia) was > 100 µM and the GI50 (KM12 colon) was 42.6 µM. For the same compound, the TGI (KM12 colon) was > 100 µM, the GI50 (LOX IMVI melanoma) was 55.2 µM and the TGI (LOX IMVI melanoma) was > 100 µM. For the same compound, the GI50 (M14 melanoma) was 42.5 µM, the TGI (M14 melanoma) was > 100 µM and the GI50 (MALME-3M melanoma) was 46.2 µM. The TGI (MALME-3M melanoma) was > 100 µM, the GI50 (MCF7 breast) was 47.1 µM and the TGI (MCF7 breast) was > 100 µM. The GI50 (MDA-MB-231 breast) was 31.3 µM, the TGI (MDA-MB-231 breast) was > 100 µM and the GI50 (MDA-MB-435) was 41.8 µM. For the same compound, the TGI (MDA-MB-435) was > 100 µM, the GI50 (MOLT-4 leukemia) was 26.6 µM and the TGI (MOLT-4 leukemia) was 82.2 µM. For the same compound, the GI50 (NCI-H226 lung) was 33.6 µM, the TGI (NCI-H226 lung) was > 100 µM and the GI50 (NCI-H23 lung) was 33.3 µM. For the same compound, the TGI (NCI-H23 lung) was > 100 µM, the GI50 (NCI-H460 lung) was 33.5 µM and the TGI (NCI-H460 lung) was > 100 µM. The GI50 (NCI-H522 lung) was 28.4 µM, the TGI (NCI-H522 lung) was 98.5 µM and the GI50 (OVCAR-3 ovarian) was 25.9 µM. For the same compound, the TGI (OVCAR-3 ovarian) was 77.6 µM, the GI50 (OVCAR-4 ovarian) was 32.6 µM and the TGI (OVCAR-4 ovarian) was 91.2 µM. The GI50 (OVCAR-5 ovarian) was 70.1 µM, the TGI (OVCAR-5 ovarian) was > 100 µM and the GI50 (OVCAR-8 ovarian) was 34.1 µM. For the same compound, the TGI (OVCAR-8 ovarian) was > 100 µM, the GI50 (PC-3 prostate) was 35 µM and the TGI (PC-3 prostate) was > 100 µM. It also gave a GI50 (RPMI-8226 leukemia) of 25 µM, a TGI (RPMI-8226 leukemia) of 66 µM and a GI50 (RXF 393 renal) of 30.3 µM. The TGI (RXF 393 renal) was 83.2 µM, the GI50 (SF-268 CNS) was 55.7 µM and the TGI (SF-268 CNS) was > 100 µM. For the same compound, the GI50 (SF-295 CNS) was 24.5 µM, the TGI (SF-295 CNS) was 67.5 µM and the GI50 (SF-539 CNS) was 72.6 µM. The TGI (SF-539 CNS) was > 100 µM, the GI50 (SK-MEL-2 melanoma) was 45.4 µM and the TGI (SK-MEL-2 melanoma) was > 100 µM. The GI50 (SK-MEL-28 melanoma) was 38.5 µM, the TGI (SK-MEL-28 melanoma) was > 100 µM and the GI50 (SK-MEL-5 melanoma) was 38.1 µM. The TGI (SK-MEL-5 melanoma) was > 100 µM, the GI50 (SK-OV-3 ovarian) was > 100 µM and the TGI (SK-OV-3 ovarian) was > 100 µM. For the same compound, the GI50 (SN12C renal) was 44.1 µM, the TGI (SN12C renal) was > 100 µM and the GI50 (SNB-19 CNS) was 93.2 µM. The TGI (SNB-19 CNS) was > 100 µM, the GI50 (SNB-75 CNS) was 24.8 µM and the TGI (SNB-75 CNS) was 90.1 µM. For the same compound, the GI50 (SW-620 colon) was 77.2 µM, the TGI (SW-620 colon) was > 100 µM and the GI50 (T-47D breast) was 67.5 µM. The TGI (T-47D breast) was > 100 µM, the GI50 (TK-10 renal) was 41.3 µM and the TGI (TK-10 renal) was > 100 µM. For the same compound, the GI50 (U251 CNS) was 41 µM, the TGI (U251 CNS) was > 100 µM and the GI50 (UACC-257 melanoma) was 35.1 µM. The TGI (UACC-257 melanoma) was > 100 µM, the GI50 (UACC-62 melanoma) was 25.2 µM and the TGI (UACC-62 melanoma) was 86.1 µM. For the same compound, the GI50 (UO-31 renal) was 36.6 µM and the TGI (UO-31 renal) was > 100 µM.
